Experimental data published in the NIST ThermoML archive (doi:10.1016/j.jct.2018.08.013).
Values joined by “and” are separate entries in the source; they are usually repeats but may differ in a detail not shown here. Equal entries are not always repeated.

Columns and labels:
[1] = specific heat capacity at constant pressure; xn = mol fraction of the nth substance listed; settings: 100 kPa, Crystal of intercomponent compound 1, x2 = 0.486
[2] = xn = mol fraction of the nth substance listed; settings: 298 K; 100 kPa; Crystal of intercomponent compound 1; X-ray diffraction; x2 = 0.486

[Te] [tellurium] + [Ga]
[1]
Settings	specific heat capacity
241.78 K, relaxation calorimetry	242.8 J/K/kg
241.86 K, relaxation calorimetry	243.61 J/K/kg
241.89 K, relaxation calorimetry	243.51 J/K/kg
245.93 K, relaxation calorimetry	243.46 J/K/kg
245.97 K, relaxation calorimetry	243.31 J/K/kg
246.62 K, relaxation calorimetry	244.93 J/K/kg
246.79 K, relaxation calorimetry	243.87 J/K/kg
248.47 K, relaxation calorimetry	241.79 J/K/kg
248.52 K, relaxation calorimetry	242.09 J/K/kg
248.53 K, relaxation calorimetry	241.99 J/K/kg
249.9 K, relaxation calorimetry	242.85 J/K/kg
249.93 K, relaxation calorimetry	242.9 J/K/kg
251.64 K, relaxation calorimetry	245.64 J/K/kg
251.81 K, relaxation calorimetry	244.63 J/K/kg
253.96 K, relaxation calorimetry	242.96 J/K/kg
254 K, relaxation calorimetry	243.06 J/K/kg
256.38 K, relaxation calorimetry	242.14 J/K/kg
256.44 K, relaxation calorimetry	242.35 J/K/kg and 242.65 J/K/kg
256.66 K, relaxation calorimetry	246.25 J/K/kg
256.83 K, relaxation calorimetry	245.08 J/K/kg
258.12 K, relaxation calorimetry	244.12 J/K/kg
258.16 K, relaxation calorimetry	244.02 J/K/kg
260.51 K, Extra sensitive DSC	245.54 J/K/kg
261.66 K, relaxation calorimetry	248.07 J/K/kg
261.82 K, relaxation calorimetry	246.86 J/K/kg
262.18 K, relaxation calorimetry	245.13 J/K/kg
262.22 K, relaxation calorimetry	244.93 J/K/kg
263.12 K, Extra sensitive DSC	246.4 J/K/kg
264.28 K, relaxation calorimetry	243.97 J/K/kg
264.35 K, relaxation calorimetry	244.43 J/K/kg and 244.17 J/K/kg
265.73 K, Extra sensitive DSC	246.3 J/K/kg
266.13 K, relaxation calorimetry	246.15 J/K/kg
266.19 K, relaxation calorimetry	245.59 J/K/kg
266.68 K, relaxation calorimetry	246.55 J/K/kg
266.71 K, relaxation calorimetry	246.55 J/K/kg
266.72 K, relaxation calorimetry	246.4 J/K/kg
268.33 K, Extra sensitive DSC	246.81 J/K/kg
270.07 K, Extra sensitive DSC	246.96 J/K/kg
270.3 K, relaxation calorimetry	248.78 J/K/kg
270.35 K, relaxation calorimetry	247.67 J/K/kg
270.64 K, relaxation calorimetry	247.06 J/K/kg
270.65 K, relaxation calorimetry	246.66 J/K/kg
271.54 K, relaxation calorimetry	248.83 J/K/kg
271.73 K, relaxation calorimetry	246.76 J/K/kg
271.83 K, relaxation calorimetry	246.35 J/K/kg
272.68 K, Extra sensitive DSC	247.06 J/K/kg
272.79 K, relaxation calorimetry	247.62 J/K/kg
272.8 K, relaxation calorimetry	247.31 J/K/kg
273.54 K, relaxation calorimetry	249.19 J/K/kg
273.74 K, relaxation calorimetry	246.71 J/K/kg
273.84 K, relaxation calorimetry	246.55 J/K/kg
275.28 K, Extra sensitive DSC	247.26 J/K/kg
275.55 K, relaxation calorimetry	249.14 J/K/kg
275.75 K, relaxation calorimetry	246.76 J/K/kg
275.85 K, relaxation calorimetry	246.5 J/K/kg
277.54 K, relaxation calorimetry	249.29 J/K/kg
277.75 K, relaxation calorimetry	246.76 J/K/kg
277.85 K, relaxation calorimetry	246.55 J/K/kg
277.88 K, Extra sensitive DSC	247.72 J/K/kg
279.54 K, relaxation calorimetry	249.09 J/K/kg
279.76 K, relaxation calorimetry	246.5 J/K/kg
279.87 K, relaxation calorimetry	246.45 J/K/kg
280.49 K, Extra sensitive DSC	247.87 J/K/kg
281.52 K, relaxation calorimetry	249.09 J/K/kg
281.76 K, relaxation calorimetry	246.25 J/K/kg
281.87 K, relaxation calorimetry	246.1 J/K/kg
283.09 K, Extra sensitive DSC	248.33 J/K/kg
283.53 K, relaxation calorimetry	248.99 J/K/kg
283.78 K, relaxation calorimetry	246.15 J/K/kg
283.87 K, relaxation calorimetry	246.66 J/K/kg
285.53 K, relaxation calorimetry	249.44 J/K/kg
285.7 K, Extra sensitive DSC	248.58 J/K/kg
285.78 K, relaxation calorimetry	246.4 J/K/kg
285.88 K, relaxation calorimetry	246.6 J/K/kg
287.54 K, relaxation calorimetry	249.54 J/K/kg
287.78 K, relaxation calorimetry	246.35 J/K/kg
287.89 K, relaxation calorimetry	246.66 J/K/kg
288.3 K, Extra sensitive DSC	248.89 J/K/kg
289.53 K, relaxation calorimetry	249.65 J/K/kg
289.79 K, relaxation calorimetry	246.55 J/K/kg
289.89 K, relaxation calorimetry	246.86 J/K/kg
290.04 K, Extra sensitive DSC	248.94 J/K/kg
291.53 K, relaxation calorimetry	250.41 J/K/kg
291.8 K, relaxation calorimetry	247.16 J/K/kg
291.9 K, relaxation calorimetry	247.52 J/K/kg
292.64 K, Extra sensitive DSC	249.09 J/K/kg
293.52 K, relaxation calorimetry	251.32 J/K/kg
293.81 K, relaxation calorimetry	248.68 J/K/kg
293.9 K, relaxation calorimetry	248.89 J/K/kg
295.25 K, Extra sensitive DSC	249.29 J/K/kg
295.51 K, relaxation calorimetry	251.37 J/K/kg
295.84 K, relaxation calorimetry	249.34 J/K/kg
295.91 K, relaxation calorimetry	249.34 J/K/kg
297.52 K, relaxation calorimetry	250.81 J/K/kg
297.83 K, relaxation calorimetry	250.71 J/K/kg
297.85 K, Extra sensitive DSC	249.75 J/K/kg
297.93 K, relaxation calorimetry	248.68 J/K/kg
299.53 K, relaxation calorimetry	250.25 J/K/kg
299.85 K, relaxation calorimetry	250.15 J/K/kg
299.94 K, relaxation calorimetry	248.63 J/K/kg
300.45 K, Extra sensitive DSC	249.9 J/K/kg
301.54 K, relaxation calorimetry	251.06 J/K/kg
301.87 K, relaxation calorimetry	250.86 J/K/kg
301.95 K, relaxation calorimetry	249.39 J/K/kg
303.06 K, Extra sensitive DSC	250.51 J/K/kg
303.81 K, relaxation calorimetry	250.56 J/K/kg
303.84 K, relaxation calorimetry	252.33 J/K/kg
303.87 K, relaxation calorimetry	250.51 J/K/kg
305.66 K, Extra sensitive DSC	250.76 J/K/kg
307.4 K, Extra sensitive DSC	250.81 J/K/kg
310 K, Extra sensitive DSC	251.22 J/K/kg
312.6 K, Extra sensitive DSC	251.42 J/K/kg
315.21 K, Extra sensitive DSC	251.88 J/K/kg
317.81 K, Extra sensitive DSC	251.93 J/K/kg
320.41 K, Extra sensitive DSC	252.23 J/K/kg
323.02 K, Extra sensitive DSC	252.48 J/K/kg
325.62 K, Extra sensitive DSC	252.53 J/K/kg
327.36 K, Extra sensitive DSC	252.74 J/K/kg
329.96 K, Extra sensitive DSC	253.04 J/K/kg
332.56 K, Extra sensitive DSC	253.19 J/K/kg
335.17 K, Extra sensitive DSC	253.5 J/K/kg
337.77 K, Extra sensitive DSC	253.7 J/K/kg
340.38 K, Extra sensitive DSC	254 J/K/kg
342.98 K, Extra sensitive DSC	254.41 J/K/kg
345.58 K, Extra sensitive DSC	254.41 J/K/kg
348.19 K, Extra sensitive DSC	254.76 J/K/kg
349.92 K, Extra sensitive DSC	254.76 J/K/kg
352.53 K, Extra sensitive DSC	254.66 J/K/kg
355.13 K, Extra sensitive DSC	255.32 J/K/kg
356.87 K, Extra sensitive DSC	255.07 J/K/kg
358.6 K, Extra sensitive DSC	254.97 J/K/kg

Settings	mass density [kg/m3]
[2]	5448
